In PubChem BioAssay AID2252 (Southern Research Specialized Biocontainment Screening …, 2010):
“And” between values parts separate entries of the source, which are not always exact repeats. Equal entries are not always repeated.

test system: THP-1 viability, CellTiter-Glo luminescence, 72 h; test: PubChem AID 2252

`Fc1ccc(CCNCc2ccc(Cl)c(Cl)c2)cc1` and `OC(CNCCc1ccc(Cl)cc1Cl)COc1ccccc1` (stereo unspecified) are within 1.5-fold of each other in EC50: 35.2 µM for the first, 29.2 µM for the second.

`NC1=NC[C@H](c2ccccc2)N1CCc1cc(C(F)(F)F)cc(C(F)(F)F)c1` and `Nc1cccc2nc3ccccc3cc12` are within 1.5-fold of each other in EC50: 3.81 µM for the first, 5.32 µM for the second.

`O=C(C[n+]1cnn(CC(=O)c2ccc(Cl)cc2Cl)c1)c1ccc([N+](=O)[O-])cc1` and `Cc1ccccc1-n1ncc2c([N+](=O)[O-])cc([N+](=O)[O-])cc21` are within 1.5-fold of each other in EC50: 26.4 µM for the first, 26.6 µM for the second.

Compared with `CCc1nc(SCC(=O)Nc2ccc(N(C)C)cc2)c2ccccc2n1`, `COc1ccc(Nc2cc(C)c3c(O)cccc3n2)cc1` is 4-fold lower in EC50: 35.3 µM for the first, 8.86 µM for the second. The second is the more potent here.

`COc1cc([N+](=O)[O-])cc(/C=N/NC(=O)C(C)Nc2cccc(C)c2)c1O` (stereo unspecified) and `COc1cc(/C=N/NC(=O)c2cncc(Br)c2)cc([N+](=O)[O-])c1O` are within 1.5-fold of each other in EC50: 27 µM for the first, 38.1 µM for the second.

Going from `O=Nc1c(O)c2ccccc2c2ccccc12` to `CC(=O)c1cc(O)c2ccccc2c1O`, the EC50 rises from 3.08 µM to 41.2 µM (13-fold).

`Cc1cc(C2N=C(N)Nc3nc4ccccc4n32)c(C)n1-c1ccccc1Cl` (stereo unspecified) and `Oc1ccccc1Nc1nc(NCc2ccco2)c2ccccc2n1` are within 1.5-fold of each other in EC50: 11.4 µM for the first, 12.6 µM for the second.

Compared with `COc1cccc(-c2nnc(NC(=O)c3ccc(Cl)s3)o2)c1`, `O=C(Nc1nc(-c2ccccn2)cs1)c1ccc(Cl)s1` is 18-fold lower in EC50: 15 µM for the first, 0.84 µM for the second.

`Cc1cc2nc(C3CCN(CC4COc5ccccc5O4)CC3)[nH]c2cc1C` (stereo unspecified) and `CCN1CCN(c2cc(C)c3cc(NC(=S)N4CCN(c5ccccc5F)CC4)ccc3n2)CC1` are within 1.5-fold of each other in EC50: 26.8 µM for the first, 17.9 µM for the second.

Going from `CCCCCCCCCCCCCCCC[N+](C)(C)CCN(Cc1ccc(OC)cc1)c1ncccn1` to `CCCCCCCCCCOC(=O)Cn1c(COc2ccccc2OC)[n+](C)c2ccccc21`, the EC50 rises from 0.36 µM to 1.64 µM (4.6-fold). The first is the more potent here.

`CN1CCN(c2ccccc2NC(=O)c2cc3c(s2)-c2ccccc2OC3)CC1` and `CCSc1ccc2c(c1)N(CCCN1CCN(C)CC1)c1ccccc1S2` are within 1.5-fold of each other in EC50: 9.73 µM for the first, 12.8 µM for the second.

Compared with `CCN(CC)CCCCCCCCOC(=O)c1cc(OC)c(OC)c(OC)c1`, `CCCCCCCCCCOC(=O)Cn1c(COc2cccc(C)c2)[n+](C)c2ccccc21` is 20-fold lower in EC50: 47.9 µM for the first, 2.43 µM for the second.

Going from `CNC[C@H](Cc1ccccc1)NC[C@@H](Cc1cccc2ccccc12)NCCc1ccc(C)cc1` to `OC(CNCCc1ccc(C(F)(F)F)cc1)COC(c1ccccc1)c1ccccc1` (stereo unspecified), the EC50 rises from 4.01 µM to 15.9 µM (4-fold). The first is the more potent here.

First: COc1ccc(CNCCC(c2ccccc2)c2ccc3c(c2)OCO3)cc1 (stereo unspecified)
Second: CC(NCC(O)COc1ccc2ccccc2c1)c1ccccc1 (stereo unspecified)
The EC50 of the first is 2-fold higher: 13.4 µM for the first, 6.71 µM for the second. The second is the more potent here.

First: CC(C(=O)NC1C=CS(=O)(=O)C1)N1C(=O)/C(=C/c2ccc(Cl)cc2)SC1=S (stereo unspecified)
Second: CN1CCN(C2Cc3cc(Cl)ccc3Sc3cc(F)ccc32)CC1 (stereo unspecified)
The EC50 of the first is 3.1-fold higher: 25.7 µM for the first, 8.2 µM for the second. The second is the more potent here.

`Cc1ccc(-c2c[n+](Cc3ccc(Cl)cc3)c3n2CCC3)cc1` and `CN1CCCN(C(c2ccccc2)c2ccc(Cl)cc2)CC1` (stereo unspecified) are within 1.5-fold of each other in EC50: 10.1 µM for the first, 8.99 µM for the second.

Compared with `CCc1ccc(-c2nn(-c3ccccc3)cc2CSC(=N)N)cc1`, `CCCOc1ccc(-c2cn3ccccc3n2)cc1` is 8.4-fold higher in EC50: 5.18 µM for the first, 43.5 µM for the second. The first is the more potent here.

Compared with `CN(C)CCCN1c2ccccc2CCc2ccc(Cl)cc21`, `Cc1ccc2nc(N(CCCN(C)C)C(=O)c3ccc4c(c3)CCCC4)sc2c1` is 2-fold lower in EC50: 18.4 µM for the first, 9.42 µM for the second.

`OCCN1CCN(C2CCC(c3ccc(F)cc3)c3ccc(F)cc32)CC1` (stereo unspecified) and `Fc1ccc(Nc2ccnc(Nc3ccc(F)cc3)n2)cc1` are within 1.5-fold of each other in EC50: 9.55 µM for the first, 11.7 µM for the second.

First: Nn1cnnc1N/N=C\c1ccc(-c2ccccc2[N+](=O)[O-])o1
Second: Cc1ccc2nc(/C(C#N)=C\c3ccc([N+](=O)[O-])o3)[nH]c2c1
The EC50 of the first is 33-fold higher: 41.3 µM for the first, 1.25 µM for the second.

First: COc1cccc(/C=N/NC(=O)CSCC(=O)Nc2ccccc2)c1O
Second: CNCc1c(OCc2ccccc2F)ccc2ccccc12
The EC50 of the first is 2.9-fold lower: 5.26 µM for the first, 15.2 µM for the second. The first is the more potent here.

`CC(=O)CC1OC(=O)C(Br)=C1NCc1ccccc1` (stereo unspecified) and `CN(C)CCCN(C(=O)CCc1ccccc1)c1nc2ccc(Br)cc2s1` are within 1.5-fold of each other in EC50: 9.9 µM for the first, 13.4 µM for the second.

Compared with `COc1cc2c(cc1OC)[C@H](Cc1ccc(O)cc1)NCC2`, `COc1ccc(/C=N/Nc2cc(C)nc3c(C)cccc23)cc1` is 4.2-fold lower in EC50: 23.4 µM for the first, 5.61 µM for the second. The second is the more potent here.

First: Cc1nonc1C(=O)N/N=C/c1ccc(O)cc1O
Second: Oc1cccc2ccc(Nc3ccccn3)nc12
The EC50 of the first is 4.6-fold higher: 8.05 µM for the first, 1.75 µM for the second. The second is the more potent here.

Compared with `Cc1ccc(C(=O)N/C(=C\c2ccc(-c3ccc(Br)cc3)o2)C(=O)NCCCN(C)C)cc1`, `Cc1ccc(C(C[N+](=O)[O-])Sc2ccc(N)cc2)cc1` (stereo unspecified) is 5.2-fold higher in EC50: 4.18 µM for the first, 21.8 µM for the second. The first is the more potent here.

First: Cc1nc(NC2=NCN(CCCN3CCOCC3)CN2)nc2c(C)cccc12
Second: [O-][n+]1c2c(c3c4non(O)c4ccc31)CCCC2
The EC50 of the first is 3.4-fold lower: 13.9 µM for the first, 47.7 µM for the second.

First: O=C1c2ccccc2C2=Nc3ccccc3SC(c3ccccc3F)C12 (stereo unspecified)
Second: S=C(NCc1ccc(Cl)cc1)Nc1ccncc1
The EC50 of the first is 2.9-fold lower: 13.8 µM for the first, 40.1 µM for the second. The first is the more potent here.

`C#CCOCCOCCOCCNc1nc(N2CCN(C(=O)CCCCCCCCCCNC(=O)[C@H]([C@@H](C)CC)n3cc(CCCCN=C(N)N)nn3)CC2)nc(N2CCN(C(=O)CCCCCCCCCCNC(=O)[C@H](CCCCN)n3cc(C)nn3)CC2)n1` showed an EC50 of 3.57 µM.

With `NC(=NCCCCCCN=C(N)/N=C(\N)Nc1ccc(Cl)cc1)/N=C(\N)Nc1ccc(Cl)cc1` the EC50 was 3.5 µM and 1.62 µM and 3.91 µM.
